≈ marks a conversion by molar mass, not a printed value. One block for each molecule: values may come before it.
How the values were obtained:
Assay in all cases: ≥ marks a high value that may be exact or a test limit, other limits are often not marked, values filed in µg/mL are converted to µM
[1] = test system: Micrococcus luteus NBRC 12708
[2] = test system: Pseudomonas aeruginosa NBRC 12582
[3] = test system: Staphylococcus aureus NBRC 12732
[4] = test system: Escherichia coli NBRC 14237
Candida albicans SC5314 = test system: Candida albicans SC5314
[5] = test system: Candida tropicalis ATCC 13803
[6] = test system: Candida parapsilosis ATCC 22019
[7] = test system: Staphylococcus aureus ATCC 43300
[8] = test system: Escherichia coli ATCC 23716
[9] = test system: Acinetobacter baumannii ATCC 19606
Yersinia pestis KIM pYV = test system: Yersinia pestis KIM pYV
[10] = test system: Bordetella bronchiseptica CUN 11844-99
[11] = test system: Escherichia coli ATCC 25922
[12] = test system: Pseudomonas aeruginosa CUN 4158-02
[13] = test system: Brucella abortus 9.49 (per-)
Klebsiella pneumoniae = test system: Klebsiella pneumoniae
Escherichia coli ESBL = test system: Escherichia coli ESBL
[14] = test system: Salmonella typhimurium ATCC 7731
[15] = test system: Enterococcus faecalis ATCC 29212
[16] = test system: Pseudomonas aeruginosa ATCC 27853
[17] = test system: Bacillus subtilis CMCC 63501
[18] = test system: Salmonella enterica subsp. enterica serovar Typhimurium ATCC 14028
[19] = test system: Pseudomonas aeruginosa PAO1
[20] = test system: Staphylococcus epidermidis ATCC 12228
Escherichia coli UB1005 = test system: Escherichia coli UB1005
[21] = test system: Staphylococcus aureus ATCC 29213
[22] = test system: Salmonella enterica subsp. enterica serovar Pullorum C79-13
[23] = test system: Bacillus subtilis ATCC 6633
[24] = test system: Pseudomonas aeruginosa ATCC BAA-427
[25] = test system: Escherichia coli DH5alpha
[26] = test system: Klebsiella pneumoniae ATCC 27736
[27] = test system: Escherichia coli ATCC 10536
[28] = test system: Staphylococcus aureus ATCC 9144
Candida krusei ATCC 6258 = test system: Candida krusei ATCC 6258
[29] = test system: Bacillus subtilis ATCC 19659
[30] = test system: Candida albicans ATCC 90028
[31] = test system: Staphylococcus aureus ATCC 25923

Compound: NCCCC[C@H](NC(=O)[C@@H](N)CS)C(=O)N[C@@H](Cc1ccc(O)cc1)C(=O)N[C@@H](CCCN=C(N)N)C(=O)N[C@@H](Cc1c[nH]c2ccccc12)C(=O)N[C@@H](CCCN=C(N)N)C(=O)O [CKYRWR]
MIC (Candida albicans SC5314): ≥ 439 µM | MIC [5]: ≥ 220 µM | MIC [6]: ≥ 220 µM

Compound: CC[C@H](C)[C@H](N)C(=O)N[C@@H](CO)C(=O)N[C@@H](CCCCN)C(=O)N[C@@H](CCCN=C(N)N)C(=O)N[C@H](C(=O)N[C@@H](CC(C)C)C(=O)N[C@H](C(=O)NCC(=O)N[C@@H](CCCCN)C(=O)N[C@@H](CCCCN)C(N)=O)[C@@H](C)O)[C@@H](C)CC [ISKRILTGKK]
MIC [7]: > 224 µM | MIC [8]: ≥ 224 µM | MIC [9]: > 224 µM | MIC (Yersinia pestis KIM pYV): ≥ 224 µM | MIC [10]: ≥ 224 µM | MIC [11]: > 224 µM | MIC [12]: ≥ 224 µM | MIC [13]: ≥ 56 µM

Compound: CC(C)C[C@H](NC(=O)[C@H](CCCCN)NC(=O)CNC(=O)[C@H](CCCCN)NC(=O)[C@H](Cc1ccccc1)NC(=O)[C@H](CCCCN)NC(=O)[C@H](Cc1c[nH]c2ccccc12)NC(=O)[C@H](CCCN=C(N)N)NC(=O)[C@H](Cc1ccccc1)NC(=O)[C@H](CCCN=C(N)N)NC(=O)[C@H](CCCN=C(N)N)NC(=O)[C@H](Cc1ccc(O)cc1)NC(=O)[C@H](CO)NC(=O)[C@H](CCCCN)NC(=O)CN)C(=O)N[C@@H](Cc1ccccc1)C(=O)N[C@@H](CC(C)C)C(=O)N[C@@H](Cc1ccccc1)C(=O)NCC(N)=O [GKSYRRFRWKFKGKLFLFG]
MIC (Klebsiella pneumoniae): 6.61 µM (≈ 16 µg/mL) | MIC (Escherichia coli ESBL): 4.67 µM (≈ 11.3 µg/mL)

Compound: CC[C@H](C)[C@H](NC(=O)[C@H](CCCN=C(N)N)NC(=O)[C@@H](N)Cc1ccccc1)C(=O)N[C@@H](CCCN=C(N)N)C(=O)N[C@H](C(=O)N[C@@H](CCCN=C(N)N)C(=O)N[C@H](C(N)=O)C(C)C)C(C)C [FRIRVRV]
MIC [14]: ≥ 32 µM | MIC [15]: 32 µM (≈ 30.2 µg/mL) | MIC [16]: 16 µM (≈ 15.1 µg/mL) | MIC [17]: 16 µM (≈ 15.1 µg/mL) | MIC [18]: 16 µM (≈ 15.1 µg/mL) | MIC [19]: 32 µM (≈ 30.2 µg/mL) | MIC [20]: 32 µM (≈ 30.2 µg/mL) | MIC (Escherichia coli UB1005): ≥ 32 µM

Compound: CC[C@H](C)[C@H](NC(=O)CN)C(=O)NCC(=O)N[C@@H](C)C(=O)N[C@H](C(=O)N[C@H](C(=O)N[C@@H](CCCCN)C(=O)N[C@H](C(=O)N[C@@H](CC(C)C)C(=O)N[C@H](C(=O)N[C@H](C(=O)NCC(=O)N[C@H](C(=O)N1CCC[C@H]1C(=O)N[C@@H](C)C(=O)N[C@H](C(=O)N[C@H](C(=O)N[C@@H](CO)C(=O)N[C@@H](Cc1c[nH]c2ccccc12)C(=O)N[C@H](C(=O)N[C@@H](CCCCN)C(=O)N[C@@H](CCCN=C(N)N)C(=O)N[C@@H](CCCCN)C(=O)N[C@@H](CCCN=C(N)N)C(=O)N[C@@H](CCC(N)=O)C(=O)N[C@@H](CCC(N)=O)C(N)=O)[C@@H](C)CC)[C@@H](C)CC)C(C)C)C(C)C)[C@@H](C)O)[C@@H](C)O)C(C)C)C(C)C)C(C)C [GIGAVVKVLTTGVPAVISWIKRKRQQ]
MIC [23]: 2.5 µM (≈ 7.01 µg/mL) | MIC [24]: 12 µM (≈ 33.7 µg/mL) | MIC [25]: 3.5 µM (≈ 9.82 µg/mL) | MIC [26]: 2.1 µM (≈ 5.89 µg/mL) | MIC [27]: 3.3 µM (≈ 9.25 µg/mL) | MIC [28]: 3 µM (≈ 8.41 µg/mL)

The remaining lines, values ahead:

MIC [1]: 25 µM (≈ 37 µg/mL) | MIC [2]: ≥ 50 µM | MIC [3]: 12.5 µM (≈ 18.5 µg/mL) | MIC [4]: 12.5 µM (≈ 18.5 µg/mL)
Compound: CC[C@H](C)[C@H](NC(=O)CNC(=O)[C@H](C)NC(=O)[C@H](CC(C)C)NC(=O)[C@H](CC(C)C)NC(=O)CNC(=O)[C@@H]1CCCN1C(=O)[C@H](CC(C)C)NC(=O)[C@H](CC(C)C)NC(=O)[C@H](CC(N)=O)NC(=O)[C@H](CC(C)C)NC(=O)[C@H](CC(C)C)NC(=O)[C@@H](N)CCCCN)C(=O)N[C@@H](Cc1ccccc1)C(N)=O [KLLNLLPGLLAGIF]

MIC [14]: ≥ 32 µM | MIC [7]: 128 µM (≈ 273 µg/mL) | MIC [16]: 16 µM (≈ 34.1 µg/mL) | MIC [21]: 128 µM (≈ 273 µg/mL) | MIC [17]: ≥ 64 µM | MIC [22]: 16 µM (≈ 34.1 µg/mL) | MIC [20]: 128 µM (≈ 273 µg/mL) | MIC [11]: 8 µM (≈ 17 µg/mL) | MIC (Escherichia coli UB1005): 8 µM (≈ 17 µg/mL)
Compound: CC(C)C[C@H](NC(=O)[C@H](CCCCN)NC(=O)[C@H](CCCCN)NC(=O)[C@H](C)NC(=O)[C@@H](NC(=O)[C@H](CCCCN)NC(=O)[C@H](CO)NC(=O)[C@H](CC(C)C)NC(=O)[C@H](Cc1c[nH]c2ccccc12)NC(=O)[C@H](CC(C)C)NC(=O)[C@H](CCCCN)NC(=O)[C@H](CCCCN)NC(=O)[C@H](C)NC(=O)[C@@H](NC(=O)[C@H](CCCCN)NC(=O)[C@H](CO)NC(=O)[C@H](CC(C)C)NC(=O)[C@@H](N)Cc1c[nH]c2ccccc12)[C@@H](C)O)[C@@H](C)O)C(N)=O [WLSKTAKKLWLSKTAKKL]

MIC (Candida krusei ATCC 6258): ≥ 125 µM | MIC [29]: 4 µM (≈ 7.92 µg/mL) | MIC [16]: > 128 µM | MIC [30]: ≥ 32 µM | MIC [31]: 4 µM (≈ 7.92 µg/mL) | MIC [11]: 128 µM (≈ 253 µg/mL) | MIC [6]: ≥ 125 µM
Compound: CC[C@H](C)[C@H](NC(C)=O)C(=O)N[C@@H](Cc1ccccc1)C(=O)NCC(=O)N[C@@H](C)C(=O)N[C@H](C(=O)N[C@@H](Cc1c[nH]c2ccccc12)C(=O)N1CCC[C@H]1C(=O)N[C@@H](CC(C)C)C(=O)N[C@@H](C)C(=O)N[C@@H](CC(C)C)C(=O)NCC(=O)N[C@@H](C)C(=O)N[C@@H](CC(C)C)C(=O)N[C@@H](CCCCN)C(=O)N[C@@H](CC(N)=O)C(=O)N[C@@H](CC(C)C)C(=O)N[C@H](C(=O)N[C@@H](CCCCN)C(N)=O)[C@@H](C)CC)[C@@H](C)CC [IFGAIWPLALGALKNLIK]

MIC (Candida krusei ATCC 6258): ≥ 34.8 µM | MIC [30]: ≥ 69.5 µM | MIC (Candida albicans SC5314): ≥ 34.8 µM | MIC [6]: ≥ 34.8 µM
Compound: CC[C@H](C)[C@H](NC(=O)[C@@H](NC(=O)CN)C(C)C)C(=O)N[C@@H](CCCCN)C(=O)N[C@@H](C)C(=O)N[C@@H](C)C(=O)N[C@@H](CCCCN)C(=O)N[C@@H](CCCCN)C(=O)N[C@H](C(=O)N[C@H](C(=O)N[C@@H](CC(N)=O)C(=O)N[C@H](C(=O)N[C@@H](CC(C)C)C(=O)N[C@@H](CCCCN)C(=O)N[C@@H](CC(N)=O)C(=O)N[C@@H](CC(C)C)C(=O)N[C@@H](Cc1ccccc1)C(N)=O)C(C)C)C(C)C)C(C)C [GVIKAAKKVVNVLKNLF]

Reference: DBAASP
